Where no end group is shown, it is not given here. [ ]: non-standard residue; d: D form.
How the values were obtained:
HIV-1IIIB = assay: HIV-1 antiviral assay in CEM-SS cells (MTS readout)
[1] = tested on: Primary Human endothelial cells (HUVEC); assay: Endothelial cell migration assay; type: cell-based; details: 10 micrograms per ml, 22 hours
Procedure: Thereafter, designated concentration of testing peptides was added in duplicate wells.

Interleukin-4 (IL-4) = assay: Th1/Th2 cytokine profiling assay: IL-4; type: cell-based, mouse; details: 10 micrograms per ml; Ovalbumin-restimulated murine spleen cells; 72 hours
Procedure: (§1) On day 50, spleens of the mice were harvested (3 weeks after last boost with Ovalbumin). Cells were cultured (2×10^5/well in triplicate) and incubated with culture medium or test peptides—10 micrograms per ml—for 30 min. […] This kit can be used to measure Interleukin-2 (IL-2), Interleukin-4 (IL-4), Interleukin-5 (IL-5), Interferon-γ (IFN-γ), and Tumor Necrosis Factor-a (TNF-a) protein levels in a single sample. The kit performance has been optimized for analysis of physiologically relevant concentrations (μg/ml levels) of specific cytokine proteins in tissue culture supernatants and serum samples.

[2] = tested on: hepatitis B virus (HBV) ayw strain; assay: HBV assay in HepG2-2.2.15 cells (secreted HBV DNA, TaqMan PCR); type: cell-based; details: 10 micrograms per ml, six days, combination 0.95 mole peptide 1 and 1.05 mole peptide 2
Source text: HepG2-2.2.15 is a stable cell line containing the hepatitis B virus (HBV) ayw strain genome (ATCC Cat. No. CRL-11997). Antiviral compounds blocking any late step of viral replication such as transcription, translation, pregenome encapsidation, reverse transcription, particle assembly and release can be identified and characterized using this cell line. In this assay, an active compound will reduce the production of secreted HBV from cells, measured by utilizing real time quantitative PCR (TaqMan) assay to directly and accurately measure HBV DNA copies.
HepG2-2.2.15 cells were plated in 96-well microtiter plates. After 16-24 hours the confluent monolayer of HepG2-2.2.15 cells was washed and the medium was replaced with complete medium containing test peptides—10 micrograms per ml—in duplicate. […] Six days following the initial administration of the peptides, the cell culture supernatants was collected, treated with pronase and DNAse and then used in a real-time quantitative TaqMan PCR assay. The PCR-amplified HBV DNA was detected in real-time by monitoring increases in fluorescence signals that result from the exonucleolytic degradation of a quenched fluorescence probe molecule that hybridizes to the amplified HBV DNA. […] Antiviral activity was calculated from the reduction in HBV DNA levels (% virus control). […]

Interferon-γ (IFN-γ) = assay: Th1/Th2 cytokine profiling assay: IFN-γ; type: cell-based, mouse; details: 10 micrograms per ml; Ovalbumin-restimulated murine spleen cells; 72 hours
Procedure: as §1

HCMV strain AD169 = assay: HCMV plaque formation assay in MRC-5 cells; details: 10 micrograms per ml, 7-10 days
[3] = tested on: Tumor Necrosis Factor-a (TNF-a); assay: Th1/Th2 cytokine profiling assay: TNF-alpha; type: cell-based, mouse; details: 10 micrograms per ml; Ovalbumin-restimulated murine spleen cells; 72 hours
Procedure: as §1

HUVEC = assay: Endothelial tube formation assay; type: cell-based, human; details: 10 micrograms per ml, 20 hours
Source text: Positive control was vehicle only.

Interleukin-2 (IL-2) = assay: Th1/Th2 cytokine profiling assay: IL-2; type: cell-based, mouse; details: 10 micrograms per ml; Ovalbumin-restimulated murine spleen cells; 72 hours
Procedure: as §1

Interleukin-5 (IL-5) = assay: Th1/Th2 cytokine profiling assay: IL-5; type: cell-based, mouse; details: 10 micrograms per ml; Ovalbumin-restimulated murine spleen cells; 72 hours
Procedure: as §1

Molecule | antiviral activity of positive control compounds (HIV-1) (HIV-1IIIB) | increase of the migration of endothelial cells [1] | increase of the production of IL-4 (Interleukin-4 (IL-4)) | inhibition of HBV replication as compared to the virus control infection [2] | increase of the production of IFN-γ (Interferon-γ (IFN-γ)) | inhibition of HCMV plaque formation as compared to the virus control experiment (HCMV strain AD169) | change of the production of TNF-alpha [3] | increase of the tube formation of human endothelial cells (HUVEC) | increase of the production of IL-2 (Interleukin-2 (IL-2)) | change of the production of IL-5 (Interleukin-5 (IL-5)) | inhibition of the migration of human endothelial cells [1] | change of the production of IL-4 (Interleukin-4 (IL-4)) | decrease of the production of IFN-γ (Interferon-γ (IFN-γ)) | decrease of the production of IL-5 (Interleukin-5 (IL-5))
Cc1cn([C@H]2C[C@H](N=[N+]=[N-])[C@@H](CO)O2)c(=O)[nH]c1=O [AZT] | expected levels of antiviral activity |  |  |  |  |  |  |  |  |  |  |  |  | 
CC(C)(C)NC(=O)[C@@H]1CN(Cc2cccnc2)CCN1C[C@@H](O)C[C@@H](Cc1ccccc1)C(=O)N[C@H]1c2ccccc2C[C@H]1O [indinavir] | expected levels of antiviral activity |  |  |  |  |  |  |  |  |  |  |  |  | 
Ac-Arg-Phe-Met-Trp-Met-Arg-NH2 (Ac-RFMWMR-NH2) [Peptide 2] |  | 15% | 56.2% | 26.3% | 118.6% | 2.9% | did not significantly change | 4% | 56.5% | did not significantly change |  |  |  | 
HPFHL[dL]VY-OH [Peptide 1] |  |  |  | 24.3% |  | did not inhibit | did not significantly change | 2% | 82.1% |  | 26% | did not significantly change | 43.3% | 34.5%

From US20100204150A1, “USE OF A PEPTIDE AS A THERAPEUTIC AGENT” (priority 2007, published 2010)
